Here are results for 26 compounds from patent publication US12391677B2, “Thyroid hormone receptor agonists” (INVENTISBIO CO., LTD., priority 2018, dated 2025).

pEC50: −log10 of the molar value. Marks after values point to notes of the source that are not given here.

Data set [1] addresses ligand binding domain of thyroid hormone receptor beta (Homo sapiens (Human), UniProt P10828). Description: Thyroid hormone receptor TR-FRET binding assay (TRβ LBD). As to conditions: TRβ LBD 2 nM. As for the experimental part:
(§1) TR-FRET binding assay was used to test representative compounds herein.
(§2) The ligand binding domain of thyroid hormone receptor alpha and the ligand binding domain of thyroid hormone receptor beta with GST tag were purchased from Invitrogen. Biotin-SRC2-2 coactivator peptide was purchased from Sangon Biotech, Europium anti-GST and Streptavidin-D2 was from Cisbio.
(§3) Five microliters of 4× compound serial dilution was added in the 384-well plate, white, low volume, round-bottom assay plate. […] Centrifuge the assay plates at 1000 g for 1 min and incubate 1 hr at RT, protected from light. […] Calculate EC50 by fitting % Activity values and log of compound concentrations to nonlinear regression (dose response—variable slope) with Graphpad 5.0.
For orientation: TR-FRET usually uses a lanthanide donor and a delayed reading to cut background.

For data set [2], the target named is ligand binding domain of thyroid hormone receptor alpha (Homo sapiens (Human), UniProt P10827). In words: Thyroid hormone receptor TR-FRET binding assay (TRα LBD). As to conditions: TRα LBD 4 nM. As for the experimental part:
as §1, §2, §3

Data set [3] has as its target TRβ-GAL4 binding domain chimeric receptors (Homo sapiens (Human), UniProt P10828). Description: Thyroid hormone receptor cell assay (GAL4 luciferase reporter in HEK293-LUC cells). It is filed as cell-based. The text has this:
TRα-LBD or TRβ-LBD, coding sequence was inserted into pBIND expression vector (Promega, E1581) to express TRβ-GAL4 binding domain chimeric receptors. This expression vector was transfected into HEK293-LUC host cells with reporter vector (pGL4.35 which carry a stably integrated GAL4 promoter driven luciferase reporter gene). Upon agonist binding to the corresponding TRa-GAL4 or TRb-GAL4 chimeric receptor, the chimeric receptor binds to the GAL4 binding sites and stimulates the reporter gene.
Seed 2.5×10^6 HEK293-LUC cells into a 60 mm dish and incubated for 16 h at 37° C. under 5% CO2 atmosphere. Mix 12 microliters of Lipo LTX reagent in 250 microliters of Opti-MEM Medium by inversion. Mix 6 ug of DNA in 250 uL of Opti-MEM medium, then add 6 uL of Lipo PLUS Reagent. Add diluted DNA to each tube of diluted Lipo LTX Reagent (1:1 ratio), and mix by Pipettor and incubate at room temperature for 10 min. The reagent mixture was added to a 60 mm dish, incubated with cells for 4-7 h at 37 degrees under 5% CO2 atmosphere.
75 nL compound was added into 384 well assay plate using ECHO550 and then add HEK293-LUC cells (transfected, 17,000 cells/well) into the plate using phenol red-free DMEM containing 5% charcoal/dextran-treated FBS and incubated for 16-20 h at […] under 5% CO2 atmosphere. Add 25 uL of Steady-Glo Luciferase Assay Reagent into each well. Shake for 5 min and then record the luminescence value on Envision 2104 plate reader.
Background: Reporter assays use an easily measured gene product as a stand-in for the process of interest.

Data set [4] is described as follows: Human hepatocyte clearance study. It is filed as in vitro ADME. As for the experimental part:
The in vitro human hepatocyte clearance of compounds described here was studied using pooled human hepatocytes purchased from BioreclamationIVT (Westbury, NY, Cat # X008001, Lot # TQJ). The assay was conducted according to manufacturer's instruction. Briefly, 10 mM stock solutions of test compounds and positive control (Verapamil) were prepared in 100% DMSO. […] Incubation media is made of Williams E medium supplemented with 1×GlutaMax. Both thawing medium and incubation medium (serum-free) were placed in a 37° C. water bath for at least 15 minutes prior to use. […] Verapamil was use as a positive control in the assay. Vials of cryopreserved hepatocytes were removed from storage and thawed in a 37° C. water bath with gentle shaking. Contents of the vial were poured into the 50 mL thawing medium conical tube. Vials were centrifuged at 100 g for 10 minutes at room temperature. […] Hepatocyte viability and density were counted using a Trypan Blue exclusion, and then cells were diluted with serum-free incubation medium to a working cell density of 0.5×10^6 viable cells/mL. Then, a portion of the hepatocytes at 0.5×10^6 viable cells/mL was boiled for 5 minutes prior to adding to the plate as negative control to eliminate the enzymatic activity so that little or no substrate turnover should be observed. The boiled hepatocytes were used to prepare negative samples. Aliquots of 198 μL hepatocytes were dispensed into each well of a 96-well non-coated plate. The plate was placed in the incubator on an orbital shaker at 500 rpm for approximately 10 minutes. […] This assay was performed in duplicate. The plate was incubated in the incubator on an orbital shaker at 500 rpm for the designated time points. Twenty-five microliter of contents were transferred and mixed with 6 volumes (150 μL) of cold acetonitrile with IS (200 nM imipramine, 200 nM labetalol and 200 nM diclofenac) to terminate the reaction at time points of 0, 15, 30, 60, 90 and 120 minutes. […] For data analysis, all calculations were carried out using Microsoft Excel. Peak areas were determined from extracted ion chromatograms. The in vitro half-life (t1/2) of parent compound was determined by regression analysis of the percent parent disappearance vs. time curve. […] Conversion of the in vitro t1/2 (in minutes) into the scale-up unbound intrinsic clearance (scaled-up unbound CLint, in mL/min/kg) was done using the following equation (mean of duplicate determinations): Scaled-up unbound CLint=kV/N×scaling factor, where V=incubation volume (0.5 mL); N=number of hepatocytes per well (0.25×10^6 cells).

Sequence of ligand binding domain of thyroid hormone receptor alpha (P10827 other isoform, or with tags, fused parts or gaps del 1-162, other chains not shown): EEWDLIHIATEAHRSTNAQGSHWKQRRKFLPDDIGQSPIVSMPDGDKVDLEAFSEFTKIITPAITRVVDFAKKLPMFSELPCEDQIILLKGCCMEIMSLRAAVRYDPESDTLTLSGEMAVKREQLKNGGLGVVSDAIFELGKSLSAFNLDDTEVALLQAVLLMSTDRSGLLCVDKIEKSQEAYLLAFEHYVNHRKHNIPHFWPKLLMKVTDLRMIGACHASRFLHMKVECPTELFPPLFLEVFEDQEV
Sequence of TRβ-GAL4 binding domain chimeric receptors (P10828 217-461, stated change not applied): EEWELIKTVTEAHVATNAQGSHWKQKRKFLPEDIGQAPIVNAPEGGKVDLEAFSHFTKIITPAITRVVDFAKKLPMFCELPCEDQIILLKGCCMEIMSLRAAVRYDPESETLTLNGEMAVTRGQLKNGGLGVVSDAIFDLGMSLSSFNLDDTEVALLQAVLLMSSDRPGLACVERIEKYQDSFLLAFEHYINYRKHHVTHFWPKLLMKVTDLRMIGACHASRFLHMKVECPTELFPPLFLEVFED
Sequence of ligand binding domain of thyroid hormone receptor beta (P10828 217-461): as the sequence (P10828 217-461, stated change not applied) above

`Cc1nn(-c2cc(Cl)c(Oc3cc(C(C)C4CCCCC4)c(=O)[nH]n3)c(Cl)c2)c(=O)[nH]c1=O` (single isomer, unassigned) [Compound 75]: the pEC50 (commonly the EC50 on a negative log10 scale, so that one unit is a factor of ten) in data set [1] is 6.80; in data set [2], 5.95; in data set [3], 6.57.

Consider `N#Cc1nn(-c2cc(Cl)c(Oc3cc(C4CC4)c(=O)[nH]n3)c(Cl)c2)c(=O)[nH]c1=O` [Compound 1], for which the negative logarithm of the EC50 (pEC50) in data set [1] is 6.27; in data set [2] it was 5.24; in data set [3] it was 5.15.

For the compound `N#Cc1nn(-c2cc(Cl)c(Oc3cc(C4CCCC4)c(=O)[nH]n3)c(Cl)c2)c(=O)[nH]c1=O` [Compound 2], the negative-log EC50 (pEC50) in data set [1] was 6.12; in data set [2] it was 4.44; in data set [3] it was 5.01.

As for `N#Cc1nn(-c2cc(Cl)c(Oc3cc(C4CCCCC4)c(=O)[nH]n3)c(Cl)c2)c(=O)[nH]c1=O` [Compound 4], the pEC50 was 6.09 in data set [1], 4.44 in data set [2] and 4.91 in data set [3].

`N#Cc1nn(-c2cc(Cl)c(Oc3cc(C4CC4)c(=O)[nH]n3)c(Br)c2)c(=O)[nH]c1=O` [Compound 7]: the pEC50 was 6.43 in data set [1], 5.24 in data set [2] and 5.13 in data set [3].

On to `N#Cc1nn(-c2cc(Br)c(Oc3cc(C4CC4)c(=O)[nH]n3)c(Br)c2)c(=O)[nH]c1=O` [Compound 8], for which the “Human In vitro T1/2” value in data set [4] (human, hepatocytes) was “∞*”. In data set [4] (human, hepatocytes, 1 µM), the “Human In vitro Clint” value is on record as 0.00* μL/min/10^6 cells and the “Human Scale-up Clint” value is 0.00* mL/min/kg. Besides, the “Human Hepatocyte Remaining Percentage @ 120 min” value in data set [4] (human, hepatocytes, 2 h, 1 µM) is reported as 98%.

As for `Cc1nn(-c2cc(Cl)c(Oc3cc(C4CCC4)c(=O)[nH]n3)c(Cl)c2)c(=O)[nH]c1=O` [Compound 9], in data set [4] (human, hepatocytes), the CLint scaled – broadly, the capacity of the preparation to metabolise the compound, expressed as a volume cleared per time – at 1 µM worked out at 9.5 mL/min/kg; the half-life – broadly, the time needed for the level to fall by half in the phase considered – at 1 µM is 6.18 h; the hepatocyte CLint (commonly a measure of how fast metabolising enzymes remove a compound, apart from limits set by blood flow) at 1 µM was determined as 3.73 µL/min/1e6 cells. For the same compound, the “Human Hepatocyte Remaining Percentage @ 120 min” value in data set [4] (human, hepatocytes, 2 h, 1 µM) worked out at 79%.

Turning to `Cc1nn(-c2cc(Cl)c(Oc3cc(C4CCCC4)c(=O)[nH]n3)c(Cl)c2)c(=O)[nH]c1=O` [Compound 14], the pEC50 in data set [1] was 6.43; in data set [2], 5.39; in data set [3], 6.19.

Regarding `Cc1nn(-c2cc(Cl)c(Oc3cc(C4CCCCC4)c(=O)[nH]n3)c(Cl)c2)c(=O)[nH]c1=O` [Compound 15], the negative logarithm of the EC50 (pEC50) in data set [1] is 5.36; in data set [2], 4.22; in data set [3] it was 5.34.

As to `N#Cc1nn(-c2cc(Cl)c(Oc3cc(CC4CCCCC4)c(=O)[nH]n3)c(Cl)c2)c(=O)[nH]c1=O` [Compound 17], the pEC50 in data set [1] is 6.14; in data set [2], less than 4.05; in data set [3], 4.91.

For the compound `N#Cc1nn(-c2cc(Br)c(Oc3cc(C4CCCC4)c(=O)[nH]n3)c(Br)c2)c(=O)[nH]c1=O` [Compound 20], the pEC50 in data set [1] was 6.77; in data set [2], less than 4.05; in data set [3], 5.30.

For `Cc1nn(-c2cc(Br)c(Oc3cc(C4CCCC4)c(=O)[nH]n3)c(Br)c2)c(=O)[nH]c1=O` [Compound 22], the pEC50 was 7.05 in data set [1], 5.85 in data set [2] and 6.70 in data set [3].

For `Cc1nn(-c2cc(Br)c(Oc3cc(C4CC4)c(=O)[nH]n3)c(Br)c2)c(=O)[nH]c1=O` [Compound 23], the negative-log EC50 (pEC50) in data set [1] was 7.22; in data set [2] it was 6.25; in data set [3], 6.74.

Take `Cc1nn(-c2cc(Cl)c(Oc3cc(Cc4ccccc4)c(=O)[nH]n3)c(Cl)c2)c(=O)[nH]c1=O` [Compound 27]: in data set [4] (human hepatocytes, 120 min), the “Human Hepatocyte Remaining Percentage @ 120 min” value came out at 100%. The “Human Scale-up Clint” value in data set [4] (human hepatocytes, scaling factor 2544.3) was determined as 1.04 mL/min/kg. Also, in data set [4] (human, hepatocytes), the “Human In vitro Clint” value is given as 0.41 μL/min/10^6 cells and the “Human In vitro T1/2” value worked out at 56.77 h.

On to `N#Cc1nn(-c2cc(Cl)c(Oc3cc(Cc4ccc(O)cc4)c(=O)[nH]n3)c(Cl)c2)c(=O)[nH]c1=O` [Compound 33], for which the figures for the negative logarithm of the EC50 (pEC50) in data set [1], in data set [2] and in data set [3] were 7.10, 5.90 and 4.94, respectively.

Take `CCc1nn(-c2cc(Cl)c(Oc3cc(C(C)C)c(=O)[nH]n3)c(Cl)c2)c(=O)[nH]c1=O` [Compound 37]: the pEC50 in data set [1] was 5.81; in data set [2], 5.01; in data set [3] it was 5.91.

As for `CCC(CC)c1cc(Oc2c(Cl)cc(-n3nc(C)c(=O)[nH]c3=O)cc2Cl)n[nH]c1=O` [Compound 40], the negative-log EC50 (pEC50) in data set [1] was 6.39; in data set [2] it was 4.41; in data set [3], 6.21.

As to `Cc1nn(-c2cc(Br)c(Oc3cc(C(C)C)c(=O)[nH]n3)c(Br)c2)c(=O)[nH]c1=O` [Compound 46], the pEC50 is 7.52 in data set [1], 6.51 in data set [2] and 7.05 in data set [3].

In the case of `CC(C)c1cc(Oc2c(Cl)cc(-n3nc(C#N)c(=O)[nH]c3=O)cc2C(F)(F)F)n[nH]c1=O` [Compound 47], the negative-log EC50 (pEC50) was 6.80 in data set [1], 5.83 in data set [2] and 5.38 in data set [3].

In the case of `CC(C)c1c[nH]c2ccc(Oc3c(Cl)cc(-n4nc(C#N)c(=O)[nH]c4=O)cc3Cl)cc12` [Compound 56], the values for the negative-log EC50 (pEC50) in data set [1], in data set [2] and in data set [3] were 7.05, 5.99 and 5.98, respectively.

Take `N#Cc1nn(-c2cc(Cl)c(Oc3cc(C4CCC4)c(=O)[nH]n3)c(C(F)(F)F)c2)c(=O)[nH]c1=O` [Compound 62]: the negative-log EC50 (pEC50) in data set [1] was 6.74; in data set [2] it was 5.84; in data set [3], 5.28.

As for `N#Cc1nn(-c2cc(Cl)c(Oc3cc(C4CCCC4)c(=O)[nH]n3)c(C(F)(F)F)c2)c(=O)[nH]c1=O` [Compound 63], the negative-log EC50 (pEC50) in data set [1] is 6.77; in data set [2] it was 4.05; in data set [3] it was 5.07.

As to `Cc1nn(-c2cc(Cl)c(Oc3cc(Cc4ccc(C#N)cc4)c(=O)[nH]n3)c(Cl)c2)c(=O)[nH]c1=O` [Compound 66], in data set [4] (human, hepatocytes), the intrinsic clearance (CLint scaled) at 1 µM worked out at 4 mL/min/kg, the half-life at 1 µM was 14.7 h and the hepatocyte CLint at 1 µM came out at 1.57 µL/min/1e6 cells. The “Human Hepatocyte Remaining Percentage @ 120 min” value in data set [4] (human, hepatocytes, 2 h, 1 µM) turned out to be 93%.

Take `N#Cc1nn(-c2cc(Cl)c(Oc3cc(Cc4ccc5[nH]ncc5c4)c(=O)[nH]n3)c(Cl)c2)c(=O)[nH]c1=O` [Compound 73]: the negative logarithm of the EC50 (pEC50) in data set [1] was 7.00; in data set [2] it was 5.93; in data set [3] it was 4.95.

With `CC(C)c1c[nH]c2ccc(Oc3c(Cl)cc(-n4nc(C#N)c(=O)[nH]c4=O)cc3C(F)(F)F)cc12` [Compound 83], the results for the pEC50 in data set [1], in data set [2] and in data set [3] were 7.70, 6.85 and 6.64, respectively.

On to `CC(C)c1cc(Oc2c(Cl)cc(-n3nc(C#N)c(=O)[nH]c3=O)cc2Cl)n[nH]c1=O` [MGL-3196, reference compound], for which, in data set [4] (human, hepatocytes), the intrinsic metabolic clearance (CLint scaled) at 1 µM amounted to 21.3 mL/min/kg, the half-life at 1 µM was found to be 2.75 h and the hepatocyte CLint at 1 µM was determined as 8.39 µL/min/1e6 cells. Moreover, the “Human Hepatocyte Remaining Percentage @ 120 min” value in data set [4] (human, hepatocytes, 2 h, 1 µM) stood at 60%.
